Source: paper PMC7232442, “Biofilm Eradication by Symmetrical Selenoesters for Food-Borne Pathogens” (Microorganisms, 2020)
Converted amounts (≈) assume the structure as drawn. “And” between values parts separate entries of the source, which are not always exact repeats. Identical values can stand only once. Counter-ions that a name gives are not always drawn. Like-named read-outs stand apart in the source and are kept apart here.

Tests used:
[1] = tested on: S. Typhimurium SE39 ΔtolC; test: Real-time ethidium bromide accumulation assay; format: cell-based, Salmonella enterica serovar Typhimurium; design: key to Relative Fluorescence Index (RFI): RFI = (RFtreated − RFuntreated)/RFuntreated at minute 60; details: for Relative Fluorescence Index (RFI): S. Typhimurium SE39 ΔtolC, ½ MIC, minute 60; for Intracellular EB accumulation (in words): S. Typhimurium SE39, 60 min
Experimental: (§1) The impact of compounds on EB accumulation was determined by the automated EB method using a CLARIOstar Plus plate reader (BMG Labtech, UK). Firstly, the bacterial strain was incubated until it reached an optical density (OD) of 0.6 at 600 nm. The culture was washed with phosphate buffered saline (PBS; pH 7.4) and centrifuged at 13,000× g for 3 min, the cell pellet was re-suspended in PBS. The compounds were added at ½ MIC concentration to PBS containing a non-toxic concentration of EB (1 µg/mL). Then, 50 μL of the EB solution containing the compound were transferred into 96-well black microtiter plate (Greiner Bio-One Hungary Kft, Hungary), and 50 μL of bacterial suspension (OD600 0.6) were added to the each well. Then, the plates were placed into the CLARIOstar plate reader, and the fluorescence was monitored at excitation and emission wavelengths of 530 nm and 600 nm every minute for one hour on a real-time basis. From the real-time data, the activity of the compounds, namely the relative fluorescence index (RFI) of the last time point (minute 60) of the EB accumulation assay, was calculated according to the following formula:RFI = (RFtreated − RFuntreated)/RFuntreated(2) where RFtreated is the relative fluorescence (RF) at the last time point of EB retention curve in the presence of an inhibitor, and RFuntreated is the RF at the last time point of the EB retention curve of the untreated control having the solvent control (DMSO).

[2] = tested on: S. Typhimurium SE03 ΔacrA; test: Real-time ethidium bromide accumulation assay; format: cell-based, Salmonella enterica serovar Typhimurium; design: key to Relative Fluorescence Index (RFI): RFI = (RFtreated − RFuntreated)/RFuntreated at minute 60; details: for Relative Fluorescence Index (RFI): S. Typhimurium SE03 ΔacrA, ½ MIC, minute 60
Experimental: as §1

[3] = tested on: S. Typhimurium SE01 Wild-Type; test: Real-time ethidium bromide accumulation assay; format: cell-based, Salmonella enterica serovar Typhimurium; details: ½ MIC, minute 60
Experimental: as §1

[4] = tested on: S. Typhimurium SE02 ΔacrB; test: Real-time ethidium bromide accumulation assay; format: cell-based, Salmonella enterica serovar Typhimurium; details: for Relative Fluorescence Index (RFI): S. Typhimurium SE02 ΔacrB, ½ MIC, minute 60
Experimental: as §1

S. aureus ATCC 25923 [5] = test: Real-time ethidium bromide accumulation assay; format: cell-based, Staphylococcus aureus; design: key to Relative Fluorescence Index (RFI): RFI = (RFtreated − RFuntreated)/RFuntreated at minute 60; details: for Relative Fluorescence Index (RFI): S. aureus ATCC 25923, ½ MIC, minute 60
Experimental: as §1

S. aureus ATCC 25923 [6] = test: Resistance modulation assay (checkerboard) with TET or CIP; format: cell-based, Staphylococcus aureus; details: S. aureus ATCC 25923; no selenocompound
Experimental: (§2) The resistance modulation effect of compounds with ciprofloxacin (CIP) and tetracycline (TET) antibiotics were evaluated by the checkerboard method on S. aureus strains. Briefly, CIP or TET was diluted in a 96-well microtiter plate by two-fold serial dilution in MH broth and then the compounds were added at subinhibitory concentrations (½ MIC). In this assay, only the tested compounds with well-defined MIC values were tested. Finally, 10^−4 dilution of the overnight bacterial culture in MH was added to each well. The final volume was 200 µL in each well. The microtiter plates were incubated at 37 °C for 18 h. MIC values in the presence of the antibiotics alone and in combination with Se-compounds were determined by visual inspection.

S. aureus MRSA 272123 [7] = test: as above; format: cell-based, Staphylococcus aureus; details: S. aureus MRSA 272123; no selenocompound
Experimental: as §2

[8] = tested on: C. violaceum 026 sensor strain with AHL producer E. cloacae 31298 (violacein production); test: Quorum sensing (QS) inhibition, parallel inoculation disk diffusion; format: cell-based, Chromobacterium violaceum; details: disc with 10 μL compound, starting concentration ½ MIC; 24–48 h
Experimental: The QS inhibitory effect of selenocompounds was examined on the AHL producer E. cloacae strain and C. violaceum sensor bacterial strain. These strains were inoculated in parallel. The QS inhibition was monitored by agar diffusion method on LB* agar plate as described previously. Filter paper discs (7.0 mm in diameter) were placed between the parallel inoculated strains and impregnated with 10 μL compounds. Starting concentration of the compounds was ½ MIC. The agar plates were incubated at room temperature (20 °C) for 24–48 h and the inhibition of violacein production was measured.

[9] = tested on: MRC-5 human embryonal lung fibroblast cells; test: Cytotoxicity assay (MTT); format: cell-based; details: MRC-5 cells
Experimental: The adherent MRC-5 human embryonal lung fibroblast cells were cultured in 96-well flat-bottomed microtiter plates, using EMEM supplemented with 10% heat-inactivated fetal bovine serum. The density of the cells was adjusted to 1 × 10^4 cells in 100 μL per well, the cells were seeded overnight at 37 °C, 5% CO2, then the medium was removed from the plates containing the cells, and the dilutions of selenocompounds previously made in a separate plate were added to the cells in 200 μL.
The culture plates were incubated at 37 °C for 24 h; at the end of the incubation period, 20 μL of MTT (thiazolyl blue tetrazolium bromide, Sigma) solution (from a stock solution of 5 mg/mL) was added to each well. After incubation at 37 °C for 4 h, 100 μL of sodium dodecyl sulfate (SDS; Sigma) solution (10% in 0.01 M HCI) was added to each well and the plates were further incubated at 37 °C overnight. Cell growth was determined by measuring the optical density (OD) at 540/630 nm with Multiscan EX ELISA reader (Thermo Labsystems, Cheshire, WA, USA). Inhibition of the cell growth was determined according to the formula below:IC50 = 100 − [(ODsample − ODmedium control)/(ODcell control − ODmedium control)] × 100(1)
Results are expressed in terms of IC50, defined as the inhibitory dose that reduces the growth of the cells exposed to the tested compounds by 50%.

[10] = tested on: Staphylococcus aureus ATCC 25923; test: MIC determination by microdilution method; format: cell-based; details: S. aureus ATCC 25923
Experimental: (§3) The minimum inhibitory concentrations (MICs) of compounds were determined according to the Clinical and Laboratory Standard Institute guidelines (CLSI). MIC values of the compounds were determined by visual inspection. The solvent was also assayed to ensure there was no antibacterial effect and the concentration (1 v/v%) applied in the assays had no antibacterial activity. DMSO was used at subinhibitory concentration (1 v/v%) in the assays.

S. aureus MRSA 272123 [11] = test: MIC determination by microdilution method; format: cell-based; details: Staphylococcus aureus
Experimental: as §3

[12] = tested on: S. Typhimurium SE01 Wild-Type; test: MIC determination by microdilution method; format: cell-based, Salmonella enterica serovar Typhimurium; details: Salmonella enterica
Experimental: as §3

S. aureus MRSA 272123 [13] = test: Real-time ethidium bromide accumulation assay; format: cell-based, Staphylococcus aureus; details: for Relative Fluorescence Index (RFI): S. aureus MRSA 272123, ½ MIC, minute 60
Experimental: as §1

S. aureus MRSA = test: Biofilm formation using crystal violet; format: cell-based, Staphylococcus aureus; details: for Biofilm inhibition: ½ MIC, 48 h
Experimental: The anti-biofilm effect of the tested compounds against S. aureus strains and wild-type S. Typhimurium SE01 was measured using crystal violet (CV; 0.1% (v/v)). This dye is used to detect the total biofilm biomass formed. Overnight cultures were diluted to OD of 0.1 at 600 nm in TSB medium. Then, the bacterial cultures were added to 96-well microtiter plates and the compounds were added at ½ MIC concentration. The final volume was 200 μL in each well. The microtiter plates were incubated at 30 °C for 48 h with gentle agitation (100 rpm). After the incubation period, TSB medium was discarded, and the plates were washed with tap water to remove unattached cells. Then 200 μL crystal violet was added to the wells and incubated for 15 min at room temperature. Then, CV was removed from the wells and the plates were washed again with tap water, and 200 μL of 70% ethanol was added to the wells. Finally, the biofilm formation was determined by measuring the OD at 600 nm using Multiscan EX ELISA plate reader (Thermo Labsystems, Cheshire, WA, USA). The anti-biofilm effect of compounds was expressed in the percentage (%) of decrease in biofilm formation.

[14] = tested on: S. Typhimurium SE39 ΔtolC; test: MIC determination by microdilution method; format: cell-based, Salmonella enterica serovar Typhimurium; details: Salmonella enterica
Experimental: as §3

[15] = tested on: S. Typhimurium SE03 ΔacrA; test: MIC determination by microdilution method; format: cell-based, Salmonella enterica serovar Typhimurium; details: Salmonella enterica
Experimental: as §3

[16] = tested on: S. Typhimurium SE02 ΔacrB; test: MIC determination by microdilution method; format: cell-based, Salmonella enterica serovar Typhimurium; details: Salmonella enterica
Experimental: as §3

[17] = Staphylococcus aureus, ATCC25923
[18] = S. aureus MRSA 272123, read-out: MIC
[19] = S. Typhimurium SE01 wild-type, read-out: MIC

| Structure (SMILES) | Relative Fluorescence Index (RFI) [1] | Relative Fluorescence Index (RFI) [2] | Relative Fluorescence Index (RFI) [3] | Relative Fluorescence Index (RFI) [4] | Relative Fluorescence Index (RFI) (S. aureus ATCC 25923 [5]) | IC50 ([9]; Homo sapiens, MRC5, 24 h) [µM] | IC50 ([9]; 24 h) [µM] | MIC [10, 17] [µM] | MIC (S. aureus MRSA 272123 [11]; [18]) [µM] | MIC [12, 19] [µM] | Relative Fluorescence Index (RFI) (S. aureus MRSA 272123 [13]) | MIC [15] [µM] | MIC [16] [µM] | further results |
| --- | --- | --- | --- | --- | --- | --- | --- | --- | --- | --- | --- | --- | --- | --- |
| N#CC(C#N)=NNc1cccc(Cl)c1 [CCCP, carbonyl cyanide m-chlorophenyl hydrazone, reference compound] | 1.32 | 1.81 | 3.50 | 2.46 | 0.52 |  |  |  |  |  |  |  |  |  |
| O=C(O)c1cn(C2CC2)c2cc(N3CCNCC3)c(F)cc2c1=O [CIP, ciprofloxacin-hydrochloride, reference compound] |  |  |  |  |  |  |  |  |  |  |  |  |  | MIC of the antibiotic alone (S. aureus ATCC 25923 [6]): 1.06 µM; MIC of the antibiotic alone (S. aureus MRSA 272123 [7]): 33.99 µM |
| CC(CN1c2ccccc2Sc2ccccc21)N(C)C (stereo not drawn) [Promethazine, promethazine, reference compound] |  |  |  |  |  |  |  |  |  |  |  |  |  | QS zone of inhibition [8]: 46 mm |
| N#CC[Se]C(=O)c1ccc(C(=O)[Se]CC#N)cc1 [Se-C1] | 0.13 | 0.04 | −0.08 | 0.06 | 0.14 | > 75 | > 100 | 6.25 (≈ 2.31 µg/mL) | 50 (≈ 18.5 µg/mL) | 25 (≈ 9.25 µg/mL) | −0.15 |  |  | Biofilm inhibition (S. aureus MRSA): 43.7% and ~50% |
| N#CCC[Se]C(=O)c1cccc(C(=O)[Se]CC#N)c1 [Se-C2] | 0.25 | 0.09 | −0.10 | 0.03 | 0.08 | > 75 | > 100 | 6.25 (≈ 2.4 µg/mL) | 50 (≈ 19.2 µg/mL) | 25 (≈ 9.6 µg/mL) | −0.13 |  |  |  |
| N#CC[Se]C(=O)c1cc(C(=O)[Se]CC#N)cc(C(=O)[Se]CC#N)c1 [Se-C3] | 0.06 | 0.08 | −0.07 | −0.02 | 0.18 | > 75 | > 100 | 1.56 (≈ 0.805 µg/mL) |  |  | −0.05 | 12.5 (≈ 6.45 µg/mL) | 12.5 (≈ 6.45 µg/mL) | MIC fold higher than the methylketone selenoester [10]: 4 fold; MIC (S. aureus MRSA 272123 [11]; MRSA): 12.5 µM (≈ 6.45 µg/mL); MIC [14]: 25 µM (≈ 12.9 µg/mL); MIC ([12]; TYPHIMURIUM): 12.5 µM (≈ 6.45 µg/mL) |
| COC(=O)C[Se]C(=O)c1cccc(C(=O)[Se]CC(=O)OC)c1 [Se-E2] | 0.59 | 0.56 | 0.09 | 0.70 | 0.67 | > 75 | > 100 | 12.5 (≈ 5.45 µg/mL) | 100 (≈ 43.6 µg/mL) | > 100 | 0.33 | > 100 | > 100 | Intracellular EB accumulation (in words) [1]: significantly increased; Intracellular EB accumulation (in words) ([2]; S. Typhimurium SE03, 60 min): significantly increased; Intracellular EB accumulation (in words) ([4]; S. Typhimurium SE02, 60 min): significantly increased; MIC [10]: 12.5 µM (≈ 5.45 µg/mL); MIC [14]: > 100 µM; EPI activity (in words) (S. aureus MRSA 272123 [13]; resistant S. aureus MRSA, 60 min): effective; EPI activity (in words) (S. aureus ATCC 25923 [5]; reference (sensitive) S. aureus, 60 min): effective |
| CC(=O)C[Se]C(=O)c1cc(C(=O)[Se]CC(C)=O)cc(C(=O)[Se]CC(C)=O)c1 [Se-K3] | 0.44 | 0.28 | −0.20 | 0.08 | 0.16 | 0.74 |  | 0.39 (≈ 0.221 µg/mL) | 0.78 (≈ 0.442 µg/mL) | 50 (≈ 28.4 µg/mL) | −0.18 | 25 (≈ 14.2 µg/mL) | 25 (≈ 14.2 µg/mL) | Intracellular EB accumulation (in words) [1]: significant EB accumulation; MIC [10]: 0.39 µM (≈ 0.221 µg/mL); Anti-biofilm effect (in words) (S. aureus MRSA): most effective anti-biofilm agent; Biofilm inhibition (S. aureus MRSA): 84.7% |
| CN(C)[C@@H]1C(O)=C(C(N)=O)C(=O)[C@@]2(O)C(O)=C3C(=O)c4c(O)cccc4[C@@](C)(O)[C@H]3C[C@@H]12 [TET, tetracycline-hydrochloride, reference compound] |  |  |  |  |  |  |  |  |  |  |  |  |  | MIC of the antibiotic alone (S. aureus ATCC 25923 [6]): 0.88 µM; MIC of the antibiotic alone (S. aureus MRSA 272123 [7]): 14.06 µM |
